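In this assay, cells in 96-well plates receive the compound at five concentrations for 48 hours. Endpoints are linearly interpolated between the surrounding concentrations. GI50 marks 50% less growth.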 Activity calls are given as the source filed them. No stated cut-off is given here; in the data, active = GI50 up to about 1.1 µM and inactive = higher.
Assays:
Test in all cases: DTP human tumour cell line panel, 48 h
786-0 = tested on: 786-0
A498 = tested on: A498
A549 = tested on: A549
ACHN = tested on: ACHN
BT-549 = tested on: BT-549
CAKI-1 = tested on: CAKI-1
CCRF-CEM = tested on: CCRF-CEM
COLO 205 = tested on: COLO 205
DU-145 = tested on: DU-145
EKVX = tested on: EKVX
HCC 2998 = tested on: HCC 2998
HCT-116 = tested on: HCT-116
HCT-15 = tested on: HCT-15
HL-60 = tested on: HL-60
HOP-92 = tested on: HOP-92
Hs-578T = tested on: Hs-578T
IGROV-1 = tested on: IGROV-1
K562 = tested on: K562
KM12 = tested on: KM12
LOX IMVI = tested on: LOX IMVI
M14 = tested on: M14
MCF7 = tested on: MCF7
MDA-MB-231 = tested on: MDA-MB-231
MDA-MB-435 = tested on: MDA-MB-435
MDA-N = tested on: MDA-N
MOLT-4 = tested on: MOLT-4
Malme-3M = tested on: Malme-3M
NCI-H226 = tested on: NCI-H226
NCI-H23 = tested on: NCI-H23
NCI-H460 = tested on: NCI-H460
NCI-H522 = tested on: NCI-H522
NCI/ADR-RES = tested on: NCI/ADR-RES
OVCAR-3 = tested on: OVCAR-3
OVCAR-4 = tested on: OVCAR-4
OVCAR-5 = tested on: OVCAR-5
OVCAR-8 = tested on: OVCAR-8
PC-3 = tested on: PC-3
RPMI-8226 = tested on: RPMI-8226
RXF 393 = tested on: RXF 393
SF-268 = tested on: SF-268
SF-295 = tested on: SF-295
SF-539 = tested on: SF-539
SK-MEL-28 = tested on: SK-MEL-28
SK-MEL-2 = tested on: SK-MEL-2
SK-MEL-5 = tested on: SK-MEL-5
SN12C = tested on: SN12C
SNB-19 = tested on: SNB-19
SNB-75 = tested on: SNB-75
SR = tested on: SR
SW-620 = tested on: SW-620
T47D = tested on: T47D
TK-10 = tested on: TK-10
U-251 = tested on: U-251
UACC-257 = tested on: UACC-257
UACC-62 = tested on: UACC-62

[O-][Cl+3]([O-])([O-])[O-].[O-][Cl+3]([O-])([O-])[O-].c1ccn2c(N3CCOCC3)[n+]3c4ccccc4[n+]4c(N5CCOCC5)n5ccccc5c4c3c2c1
GI50 (786-0): > 100 µM (inactive) | GI50 (A498): > 100 µM (inactive) | GI50 (A549): > 100 µM (inactive) | GI50 (ACHN): > 100 µM (inactive) | GI50 (BT-549): > 100 µM (inactive) | GI50 (CAKI-1): > 100 µM (inactive) | GI50 (CCRF-CEM): > 100 µM (inactive) | GI50 (COLO 205): 49.9 µM (inactive) | GI50 (DU-145): > 100 µM (inactive) | GI50 (EKVX): > 100 µM (inactive) | GI50 (HCC 2998): > 100 µM (inactive) | GI50 (HCT-116): > 100 µM (inactive) | GI50 (HCT-15): > 100 µM | GI50 (HL-60): 71.6 µM (inactive) | GI50 (HOP-92): > 100 µM (inactive) | GI50 (Hs-578T): 33.7 µM (inactive) | GI50 (IGROV-1): 66.2 µM (inactive) | GI50 (K562): > 100 µM (inactive) | GI50 (KM12): 52.1 µM (inactive) | GI50 (LOX IMVI): > 100 µM (inactive) | GI50 (M14): > 100 µM (inactive) | GI50 (MCF7): 56.1 µM (inactive) | GI50 (MDA-MB-231): > 100 µM (inactive) | GI50 (MDA-MB-435): > 100 µM (inactive) | GI50 (MDA-N): 63.5 µM (inactive) | GI50 (MOLT-4): > 100 µM (inactive) | GI50 (Malme-3M): 66.2 µM (inactive) | GI50 (NCI-H226): 79.4 µM (inactive) | GI50 (NCI-H23): > 100 µM (inactive) | GI50 (NCI-H460): > 100 µM (inactive) | GI50 (NCI-H522): > 100 µM (inactive) | GI50 (NCI/ADR-RES): > 100 µM (inactive) | GI50 (OVCAR-3): > 100 µM (inactive) | GI50 (OVCAR-4): > 100 µM (inactive) | GI50 (OVCAR-5): > 100 µM (inactive) | GI50 (OVCAR-8): 41.2 µM (inactive) | GI50 (PC-3): > 100 µM (inactive) | GI50 (RPMI-8226): > 100 µM (inactive) | GI50 (RXF 393): > 100 µM (inactive) | GI50 (SF-268): 19 µM (inactive) | GI50 (SF-295): > 100 µM (inactive) | GI50 (SF-539): 65.3 µM (inactive) | GI50 (SK-MEL-28): > 100 µM (inactive) | GI50 (SK-MEL-2): > 100 µM (inactive) | GI50 (SK-MEL-5): 34 µM (inactive) | GI50 (SN12C): 17.7 µM (inactive) | GI50 (SNB-19): 63.2 µM (inactive) | GI50 (SNB-75): 28.5 µM (inactive) | GI50 (SR): 41.3 µM (inactive) | GI50 (SW-620): > 100 µM (inactive) | GI50 (T47D): > 100 µM (inactive) | GI50 (TK-10): > 100 µM (inactive) | GI50 (U-251): 50.6 µM (inactive) | GI50 (UACC-257): 68.9 µM (inactive) | GI50 (UACC-62): > 100 µM (inactive)
